This is an account of results in article PMC6384730, “Systematic Identification of Thiosemicarbazides for Inhibition of Toxoplasma gondii Growth In Vitro” (Molecules, 2019).

Each structure is given as a SMILES string. In brackets after ≈: the same amount, converted by molar mass. Where two headings read alike, the source gives them in different places.

For one data set, the system named is Toxoplasma gondii. More on the design: method as in PMID 25010466. As to conditions: previously reported; cited from earlier work.
A further data set concerns T. gondii RH tachyzoites. Kind of data set: Influence on T. gondii proliferation ([3H]uracil incorporation) in infected Vero cells. Type of data set: cell-based, Toxoplasma gondii. As to conditions: Toxoplasma gondii, Vero.
Data set [1] can be described thus: MTT cell viability (cytotoxicity) assay on L929 cells. The note with it: mouse, L929 mouse fibroblast cells, 24 h, % of untreated cells; for viability at 24 h, 62.5 µg/mL: 62.50 µg/mL. Type of data set: cell-based, mouse. As to the method:
(§1) Cells were trypsinized twice a week, and seeded at density 1 × 10^6 per T25 cell culture flask, and incubated for 24-48 h at 37 °C and 10% CO2 to achieve a confluent monolayer. […] The final concentration of DMSO in compounds dilutions was not higher than 1.00%. […] Dilution of the all compounds 2-22 and drug were freshly prepared before the cells were exposed. […] The MTT assay was used according to international standards: ISO 10993-5:2009(E), Biological evaluation of medical devices, Part 5: Tests for in vitro cytotoxicity. […] Afterward, the culture medium in the plates was replaced by 100 μL of compounds and sulfadiazine suspension and the cells were exposed for 24 h. Then, 1 mg/mL of MTT solution in RPMI 1640 without phenol red was prepared and 50 μL of the solution was added to each well and incubated at 37 °C, 10% CO2 for 2 h. Mitochondrial dehydrogenases of viable cells reduced the yellowish water-soluble MTT to water-insoluble formazan crystals, which were solubilized with dimethyl sulfoxide (DMSO). The cell culture medium was aspirated cautiously, after which 150 μL DMSO was added to each well, the plates were gently mixed, then 25 μL 0.1 M glycine buffer (pH = 10.5) (Sigma) was added. Optical density was read on the ELISA reader (Multiskan EX, Labsystems, Vienna, VA, USA) at 570 nm. The results were expressed as the percentage of viability compared to untreated cells. All experiments were performed in triplicate. Moreover, cells were treated with 4.0-0.03% concentration of DMSO as a compounds solvent (data not shown).

For a further data set, the system named is L929 cells. The description is as above. Type of data set: cell-based, mouse. The note with it: L929 cells, 24 h exposure. The procedure:
as §1

[2] abbreviates: IC50 greater than 125 µg/mL (highest concentration tested), calculated by extrapolation of the curves (GraphPad Prism), read-out: IC50 (50% inhibition of T. gondii proliferation in vitro), extrapolated.
The mark [3] stands for this setting: RH tachyzoites in Vero cells, [3H]uracil incorporation, highest concentration tested 125 µg/mL, read-out: IC50 (50% inhibition of T. gondii proliferation in vitro).

Experimental for T. gondii RH tachyzoites: Vero cell line (African green monkey kidney) (ATCC® CCL-81™) were maintained in EMEM (EMEM/10%HIFBS/P/S) (Eagle’s Minimum Essential Medium—ATCC® 30-2003™) culture medium supplemented with 10% HIFBS (Heat-Inactivated (1 h in 56°C) Fetal Bovine Serum—ATCC), 100 U/mL penicillin, 100 μg/mL streptomycin. The cell line was trypsinized (using Trypsin-EDTA Solution, 1X ATCC® 30-2101™) twice a week, and seeded at density 1 × 10^6 per T25 cell culture flask (Falcon), and incubated for 24–48 h at 37 °C and 5 CO2 to achieve a confluent monolayer. The highly virulent RH strain of Toxoplasma gondii, haplogroup I (ATCC® PRA-310™) were maintained as tachyzoites according to the ATCC product sheet, in DMEM (Dulbecco’s Modified Eagle’s Medium—ATCC® 30-2002™) (DMEM/3%HIFBS/P/S—parasite culture medium) under condition 37 °C and 5 CO2 and passage twice per week.
The Vero cells were seeded on 96-well plates (1 × 10^5 cells/100 µL/well) in EMEM/10%HIFBS/P/S. After 24 h of incubation medium was removed and then T. gondii RH tachyzoites were added to the cell monolayers at density 1 × 10^5 cells/100 µL/well in DMEM/3%HIFBS/P/S. One hour later different compounds and sulfadiazine dilutions (100 µL/well) in parasite culture medium were added to the cell monolayers with T. gondii. After subsequent 24 h of incubation 1 µCi/well [5,6-^3H] uracil (Moravek Biochemicals Inc., Brea, CA, USA) was applied to each microculture for further 72 h. The amount of the isotope incorporated into the parasite nucleic acid pool, corresponding to the parasite growth, was measured by liquid scintillation counting using 1450 Microbeta Plus Liquid Scintillation Counter (Wallac Oy, Turku, Finland). The results were expressed as counts per minute (CPM) and transformed to the percentage of viability compared to untreated cells. All experiments were performed in triplicate.

In the case of `O=C(NNC(=S)Nc1ccc(F)cc1)c1cccs1` [Compound 1], in the data set on Toxoplasma gondii, the “IC50 against proliferation of Toxoplasma gondii” value was 33.17 µg/mL and the “fold more potent than sulfadiazine” value is “at least 15 fold”.

One may read the viability as a read-out of living cells in per cent, often relative to untreated cells. What is called melting point is the temperature of the solid-liquid transition. `Cc1ccccc1NC(=S)NNC(=O)c1[nH]cnc1C` [Compound 16, 1-(4-Methylimidazol-5-oyl)-4-(2-methylphenyl)thiosemicarbazide] registered a melting point of 210 to 212 °C. Besides, in the data set with T. gondii RH tachyzoites (setting [2]), the IC50 was roughly 150 µg/mL (≈ 519 µM). In data set [1], the viability at 24 h, 3.91 µg/mL worked out at 103%; the viability at 24 h, 7.81 µg/mL was 102%; the viability at 24 h, 15.63 µg/mL was 100%; the viability at 24 h, 31.25 µg/mL stood at 93.8%. In data set [1], the viability at 24 h, 62.5 µg/mL was 91.2%; the viability at 24 h, 125 µg/mL is 79.7%; the viability at 24 h, 250 µg/mL stood at 71.5%; the viability at 24 h, 500 µg/mL was 63.4%. The “CC30 (concentration required for 30% cells proliferation inhibition)” value with L929 cells came to 288.40 µg/mL.

`Cc1cccc(NC(=S)NNC(=O)c2[nH]cnc2C)c1` [Compound 17, 1-(4-Methylimidazol-5-oyl)-4-(3-methylphenyl)thiosemicarbazide] gave a melting point of 193 to 195 °C. Besides, the IC50 in the data set on T. gondii RH tachyzoites (setting [3]) is 37.1 µg/mL (≈ 128 µM). Also, in data set [1], the viability at 24 h, 3.91 µg/mL came out at 94.1%; the viability at 24 h, 7.81 µg/mL was determined as 88.7%; the viability at 24 h, 15.63 µg/mL worked out at 85.7%; the viability at 24 h, 31.25 µg/mL was 74.8%. For the same compound, in data set [1], the viability at 24 h, 62.5 µg/mL is 64.9%; the viability at 24 h, 125 µg/mL is 56.5%; the viability at 24 h, 250 µg/mL turned out to be 50%; the viability at 24 h, 500 µg/mL turned out to be 40.7%. Moreover, the “CC30 (concentration required for 30% cells proliferation inhibition)” value in the data set with L929 cells is on record as 50.12 µg/mL.

In turn, `Cc1nc[nH]c1C(=O)NNC(=S)Nc1ccc(N(C)C)cc1` [Compound 19, 1-(4-Methylimidazol-5-oyl)-4-(4-dimethyloaminophenyl)thiosemicarbazide] returned a melting point of 215 to 217 °C. The IC50 in the data set on T. gondii RH tachyzoites (setting [2]) was roughly 165 µg/mL (≈ 517 µM). In data set [1], the viability at 24 h, 3.91 µg/mL stood at 93.1%; the viability at 24 h, 7.81 µg/mL amounted to 91.8%; the viability at 24 h, 15.63 µg/mL is 85.7%; the viability at 24 h, 31.25 µg/mL turned out to be 80.8%. In data set [1], the viability at 24 h, 62.5 µg/mL turned out to be 78.6%; the viability at 24 h, 125 µg/mL turned out to be 68.5%; the viability at 24 h, 250 µg/mL was determined as 60.8%; the viability at 24 h, 500 µg/mL was 53.3%. The “CC30 (concentration required for 30% cells proliferation inhibition)” value in the data set with L929 cells worked out at 112.20 µg/mL.

For the compound `CCN(CC)c1ccc(NC(=S)NNC(=O)c2[nH]cnc2C)cc1` [Compound 20, 1-(4-Methylimidazol-5-oyl)-4-(4-diethyloaminophenyl)thiosemicarbazide], the melting point lay within 225 to 227 °C. Further, the IC50 in the data set with T. gondii RH tachyzoites (setting [3]) stood at 25.7 µg/mL (≈ 74.2 µM). Moreover, in data set [1], the viability at 24 h, 3.91 µg/mL stood at 102%; the viability at 24 h, 7.81 µg/mL was 93.6%; the viability at 24 h, 15.63 µg/mL is 85.7%; the viability at 24 h, 31.25 µg/mL amounted to 71.3%. Besides, in data set [1], the viability at 24 h, 62.5 µg/mL was 67.9%; the viability at 24 h, 125 µg/mL turned out to be 66%; the viability at 24 h, 250 µg/mL is 53.4%; the viability at 24 h, 500 µg/mL stood at 12.9%. Further, the “CC30 (concentration required for 30% cells proliferation inhibition)” value with L929 cells was 63.10 µg/mL.

The compound `Cc1nc[nH]c1C(=O)NNC(=S)Nc1c(C(C)C)cccc1C(C)C` [Compound 22, 4-(2,6-Diisopropylphenyl)-1-(4-methylimidazol-5-oyl)thiosemicarbazide] displayed a melting point of 202 to 204 °C. In addition, the IC50 in the data set with T. gondii RH tachyzoites (setting [3]) was found to be 97.7 µg/mL (≈ 272 µM). In data set [1], the viability at 24 h, 3.91 µg/mL turned out to be 116%; the viability at 24 h, 7.81 µg/mL turned out to be 110%; the viability at 24 h, 15.63 µg/mL was found to be 101%; the viability at 24 h, 31.25 µg/mL turned out to be 80.7%. In data set [1], the viability at 24 h, 62.5 µg/mL came to 79.8%; the viability at 24 h, 125 µg/mL stood at 76.6%; the viability at 24 h, 250 µg/mL turned out to be 68.2%; the viability at 24 h, 500 µg/mL stood at 58.8%. The “CC30 (concentration required for 30% cells proliferation inhibition)” value in the data set with L929 cells turned out to be 190.55 µg/mL.

Consider `Nc1ccc(S(=O)(=O)Nc2ncccn2)cc1` [Sulfadiazine, 4-amino-N-(2-pyrimidinyl)benzenesulfonamide, reference compound], for which the IC50 in the data set with T. gondii RH tachyzoites (setting [2]) was roughly 2720 µg/mL (≈ 10900 µM). In addition, in the data set on L929 cells, the “CC30 (concentration required for 30% cells proliferation inhibition)” value came to 1251.12 µg/mL. Further, the “IC50 against proliferation of Toxoplasma gondii” value in the data set on Toxoplasma gondii was greater than 500 µg/mL.
